Converted amounts (≈) assume the structure as drawn. Blank lines part the entries; values can stand above or below the molecule they belong to.
Legend:
Assay in all cases: ≥ marks a high value that may be exact or a test limit, other limits are often not marked, values filed in µg/mL are converted to µM
[1] = test system: Escherichia coli ATCC 25726
[2] = test system: Staphylococcus aureus ATCC 25923
[3] = test system: Escherichia coli JW0013
[4] = test system: Escherichia coli MG1655
[5] = test system: Klebsiella pneumoniae ATCC 700603
[6] = test system: Pseudomonas aeruginosa ATCC 10145
[7] = test system: Leuconostoc lactis
[8] = test system: Candida albicans ATCC 90028
[9] = test system: Escherichia coli ATCC 25922
[10] = test system: Staphylococcus aureus NCTC 8325
[11] = test system: Bacillus cereus
[12] = test system: Listeria innocua
[13] = test system: Micrococcus luteus
[14] = test system: Staphylococcus aureus ATCC 29213
[15] = test system: Staphylococcus epidermidis
[16] = test system: Streptococcus uberis
[17] = test system: Candida albicans
[18] = test system: Pseudomonas aeruginosa PAO1

MIC [1]: ≥ 50 µM
MIC [2]: 12.5 µM (≈ 21.1 µg/mL)
SMILES: CC(C)C[C@H](NC(=O)[C@H](CC(C)C)NC(=O)[C@H](CC(N)=O)NC(=O)[C@H](C)NC(=O)CNC(=O)[C@H](Cc1ccccc1)NC(=O)[C@H](CCCCN)NC(=O)[C@H](CC(C)C)NC(=O)[C@H](C)NC(=O)[C@H](CCCCN)NC(=O)CNC(=O)[C@H](CC(C)C)NC(=O)[C@@H](NC(=O)[C@H](CO)NC(=O)CNC(=O)[C@H](Cc1ccccc1)NC(=O)CN)C(C)C)C(N)=O [GFGSVLGKALKFGANLL]

MIC [3]: 0.638 µM (≈ 1.6 µg/mL)
SMILES: CC[C@H](C)[C@H](NC(=O)[C@H](CCCN=C(N)N)NC(=O)[C@H](CCCN=C(N)N)NC(=O)[C@@H]1CCCN1C(=O)[C@@H]1CCCN1C(=O)[C@H](CCCN=C(N)N)NC(=O)[C@H](CCCN=C(N)N)NC(=O)[C@H](CCCN=C(N)N)NC(=O)[C@@H]1CCCN1C(=O)[C@H](CC(C)C)NC(=O)[C@H](Cc1ccc(O)cc1)NC(=O)[C@@H]1CCCN1C(=O)[C@H](CCCN=C(N)N)NC(=O)[C@H](CCCCN)NC(=O)[C@H](CC(=O)O)NC(=O)[C@@H](N)C(C)C)C(=O)N[C@@H](Cc1ccc(O)cc1)C(=O)N[C@@H](CC(N)=O)C(=O)N[C@@H](CCCN=C(N)N)C(N)=O [VDKRPYLPRRRPPRRIYNR]

MIC [4]: 8.3 µM (≈ 22 µg/mL)
MIC [5]: 4.15 µM (≈ 11 µg/mL)
MIC [6]: 0.25 µM (≈ 0.663 µg/mL)
MIC [2]: 4.15 µM (≈ 11 µg/mL)
SMILES: CC(C)C[C@H](NC(=O)[C@H](Cc1ccc(O)cc1)NC(=O)[C@H](Cc1cnc[nH]1)NC(=O)[C@H](CCCCN)NC(=O)[C@H](CC(C)C)NC(=O)[C@H](C)NC(=O)[C@H](CC(C)C)NC(=O)[C@H](CCCCN)NC(=O)CNC(=O)[C@@H](NC(=O)[C@@H](NC(=O)[C@H](CCCCN)NC(=O)[C@@H](NC(=O)[C@H](CCC(=O)O)NC(=O)[C@H](C)NC(=O)[C@H](CCCCN)NC(=O)[C@H](CCCCN)NC(=O)[C@H](CC(C)C)NC(=O)[C@H](CC(C)C)NC(=O)[C@@H](NC(=O)[C@H](CCCN=C(N)N)NC(=O)[C@H](Cc1c[nH]c2ccccc12)NC(=O)CN)[C@@H](C)O)C(C)C)[C@@H](C)O)C(C)C)C(=O)O [GWRTLLKKAEVKTVGKLALKHYL]

MIC [7]: 25 µM (≈ 41.3 µg/mL)
SMILES: CC[C@H](C)[C@H](N)C(=O)N[C@H](C(=O)N[C@@H](CCC(=O)O)C(=O)N[C@@H](CCCCN)C(=O)N[C@@H](CC(C)C)C(=O)N[C@H](C(=O)N[C@@H](CC(N)=O)C(=O)N[C@H](C(=O)N[C@@H](C)C(=O)N[C@@H](CC(C)C)C(=O)NCC(=O)N[C@@H](CC(C)C)C(=O)N[C@@H](CC(C)C)C(=O)N[C@@H](CO)C(=O)NCC(=O)N[C@@H](CC(C)C)C(N)=O)[C@@H](C)O)C(C)C)[C@@H](C)CC [IIEKLVNTALGLLSGL]

MIC [8]: 3 µM (≈ 6.37 µg/mL)
MIC [9]: 13 µM (≈ 27.6 µg/mL)
MIC [10]: 3 µM (≈ 6.37 µg/mL)
SMILES: CC[C@H](C)[C@@H]1NC(=O)[C@H](C)NC(=O)[C@@H](NC(=O)[C@@H](NC(=O)[C@@H](NC(=O)[C@H](CCCCN)NC(=O)[C@H](C)NC(=O)[C@H](C)NC(=O)[C@H](CCSC)NC(=O)CNC(=O)[C@H](C)NC(=O)[C@@H](NC(=O)[C@@H](NC(=O)[C@@H]2CCCN2C(=O)[C@H](Cc2ccccc2)NC(=O)[C@@H](N)Cc2ccccc2)[C@@H](C)CC)[C@@H](C)CC)C(C)C)[C@@H](C)CC)CSSC[C@@H](C(=O)O)NC(=O)[C@H](CCCCN)NC(=O)[C@H](CCCCN)NC(=O)[C@H]([C@@H](C)O)NC1=O [FFPIIAGMAAKVICAITKKC]

MIC [1]: ≥ 100 µM
MIC [2]: > 100 µM
SMILES: CC[C@H](C)[C@H](NC(=O)[C@H](CCC(=O)O)NC(=O)[C@H](CO)NC(=O)[C@H](C)NC(=O)[C@H](CC(C)C)NC(=O)[C@H](C)NC(=O)[C@H](CCC(N)=O)NC(=O)CNC(=O)[C@H](Cc1ccccc1)NC(=O)[C@H](CCCCN)NC(=O)[C@H](CCCCN)NC(=O)[C@H](C)NC(=O)[C@H](CO)NC(=O)[C@H](Cc1cnc[nH]1)NC(=O)[C@H](CC(C)C)NC(=O)[C@H](Cc1ccccc1)NC(=O)[C@H](CCCCN)NC(=O)CNC(=O)[C@@H](NC(=O)CN)C(C)C)C(=O)N[C@@H](CCSC)C(=O)N[C@@H](CCCCN)C(=O)N[C@@H](CO)C(=O)O [GVGKFLHSAKKFGQALASEIMKS]

MIC [8]: ≥ 50 µM
MIC [9]: 50 µM (≈ 155 µg/mL)
MIC [10]: ≥ 50 µM
SMILES: CC[C@H](C)[C@H](NC(=O)[C@H](C)NC(=O)[C@H](CC(=O)O)NC(=O)[C@H](CC(C)C)NC(=O)[C@H](CC(C)C)NC(=O)CN)C(=O)N[C@@H](CCCCN)C(=O)N[C@@H](CC(=O)O)C(=O)N[C@H](C(=O)N[C@@H](C)C(=O)N[C@@H](CCC(N)=O)C(=O)N[C@@H](CC(N)=O)C(=O)N[C@@H](CC(C)C)C(=O)N[C@@H](Cc1ccccc1)C(=O)N[C@@H](C)C(=O)N[C@@H](CC(N)=O)C(=O)N[C@H](C(=O)N[C@@H](CC(C)C)C(=O)N[C@@H](CC(=O)O)C(=O)N[C@@H](CCCCN)C(=O)N[C@H](C(=O)N[C@@H](CCCCN)C(=O)N[C@H]1CSSC[C@@H](C(=O)O)NC(=O)[C@H](CCCCN)NC(=O)[C@H]([C@@H](C)O)NC(=O)[C@H](Cc2ccccc2)NC(=O)[C@H](CCCCN)NC1=O)[C@@H](C)CC)C(C)C)[C@@H](C)O [GLLDAIKDTAQNLFANVLDKIKCKFTKC]

MIC [1]: 20 µM (≈ 62.5 µg/mL)
MIC [2]: 20 µM (≈ 62.5 µg/mL)
SMILES: CC[C@H](C)[C@H](NC(=O)[C@H](C)NC(=O)CN)C(=O)N[C@@H](CCCCN)C(=O)N[C@@H](CC(=O)O)C(=O)N[C@@H](C)C(=O)N[C@@H](CC(C)C)C(=O)N[C@@H](CCCCN)C(=O)NCC(=O)N[C@@H](C)C(=O)N[C@@H](C)C(=O)N[C@@H](CCCCN)C(=O)N[C@H](C(=O)N[C@H](C(=O)N[C@@H](C)C(=O)N[C@H](C(=O)N[C@@H](CCC(=O)O)C(=O)N[C@@H](CC(C)C)C(=O)N[C@@H](CC(C)C)C(=O)N[C@@H](CCCCN)C(=O)N[C@@H](CCCCN)C(=O)N[C@@H](C)C(=O)N[C@@H](CCC(N)=O)C(=O)N[C@H]1CSSC[C@@H](C(=O)O)NC(=O)[C@H]([C@@H](C)O)NC(=O)[C@H](CCCCN)NC(=O)[C@H](CCC(=O)O)NC(=O)[C@H](CC(C)C)NC(=O)[C@H](CCCCN)NC1=O)C(C)C)C(C)C)[C@@H](C)O [GAIKDALKGAAKTVAVELLKKAQCKLEKTC]

MIC [11]: ≥ 38.4 µM
MIC [7]: 9.6 µM (≈ 25 µg/mL)
MIC [12]: 9.6 µM (≈ 25 µg/mL)
MIC [13]: 7.68 µM (≈ 20 µg/mL)
MIC [2]: 19.2 µM (≈ 50 µg/mL)
MIC [14]: 9.6 µM (≈ 25 µg/mL)
MIC [15]: 9.6 µM (≈ 25 µg/mL)
MIC [16]: 19.2 µM (≈ 50 µg/mL)
SMILES: CC[C@H](C)[C@H](NC(=O)CNC(=O)[C@H](Cc1ccccc1)NC(=O)[C@H](CC(C)C)NC(=O)CN)C(=O)N[C@@H](CC(C)C)C(=O)NCC(=O)N[C@@H](CO)C(=O)N[C@H](C(=O)N[C@@H](C)C(=O)N[C@@H](CCCCN)C(=O)N[C@@H](Cc1cnc[nH]1)C(=O)N[C@H](C(=O)N[C@@H](CC(C)C)C(=O)N1CCC[C@H]1C(=O)N[C@@H](Cc1cnc[nH]1)C(=O)N[C@H](C(=O)N[C@H](C(=O)N1CCC[C@H]1C(=O)N[C@H](C(=O)N[C@H](C(=O)N[C@@H](C)C(=O)N[C@@H](CCC(=O)O)C(=O)N[C@@H](Cc1cnc[nH]1)C(=O)N[C@@H](CC(C)C)C(N)=O)C(C)C)C(C)C)[C@@H](C)CC)C(C)C)C(C)C)C(C)C [GLFGILGSVAKHVLPHVIPVVAEHL]

MIC [17]: 128 µM (≈ 328 µg/mL)
MIC [4]: ≥ 128 µM
MIC [18]: > 128 µM
MIC [2]: > 128 µM
SMILES: CSCC[C@H](NC(=O)[C@@H](NC(=O)[C@@H](N)CCCCN)C(C)C)C(=O)N[C@@H](CCCN=C(N)N)C(=O)N[C@@H](CCC(=O)O)C(=O)N[C@H](C(=O)N[C@@H](CC(C)C)C(=O)NCC(=O)N[C@@H](Cc1ccc(O)cc1)C(=O)N[C@@H](CCC(=O)O)C(=O)N[C@@H](CCCN=C(N)N)C(=O)N[C@@H](CC(N)=O)C(=O)N[C@@H](CO)C(=O)N[C@@H](Cc1ccc(O)cc1)C(=O)N[C@@H](CCCCN)C(=O)N[C@@H](CCCCN)C(=O)N[C@@H](Cc1ccccc1)C(=O)N[C@@H](Cc1ccccc1)C(=O)N[C@@H](CC(C)C)C(=O)N[C@@H](CCCN=C(N)N)C(N)=O)C(C)C [KVMREVLGYERNSYKKFFLR]

Source: DBAASP
